Reference: ChEMBL document CHEMBL3885861, “Open TG-GATES”

Species on record: Rattus norvegicus
Experiment: Open TG-GATES - Regimen: Daily Repeat
Format: toxicity, organism-based, Sprague-Dawley
Set-up: regimen Daily Repeat, gender Male, age 6 weeks
Conditions: in vivo, po, route gavage; for APTT / Bas / Eos / Fbg / Hb / Ht / Lym / MCH / MCHC / MCV / Mono / Neu / PT / Plat / RBC / Ret / WBC: tissue Blood; for KIDNEY_L / KIDNEY_R / KIDNEY_TOTAL: tissue Kidney; for LIVER: tissue Liver; for ALP / ALT / AST / BUN / CRE / DBIL / GLC / IP / K / LDH / Na / PL / RALB / TBIL / TC / TP / gamma-GTP / TG: tissue Plasma
[1] = 0 mg/kg, 72 h, dose level Control, time 3 day
[2] = 0 mg/kg, […], dose level Control, time 7 day
[3] = 0 mg/kg, […], dose level Control, time 14 day
[4] = 0 mg/kg, […], dose level Control, time 28 day
[5] = 30 mg/kg, 72 h, dose level Low, time 3 day
[6] = 30 mg/kg, […], dose level Low, time 7 day
[7] = 30 mg/kg, […], dose level Low, time 14 day
[8] = 30 mg/kg, […], dose level Low, time 28 day

Clc1ccccc1CN1CCc2sccc2C1 [TICLOPIDINE]
TERMINAL_BW [1]: 230.2 g
APTT [1]: 20.4 s
Bas [1]: 0.6%
Eos [1]: 1%
Fbg [1]: 211 mg/dL
Hb [1]: 13.6 g/dL
Ht [1]: 38.2%
Lym [1]: 77.6%
MCH [1]: 21.9 pg
MCHC [1]: 35.8%
MCV [1]: 61.3 fL
Mono [1]: 3.2%
Neu [1]: 17%
PT [1]: 11.7 s
Plat [1]: 127.8 x10_4/uL
RBC [1]: 622.6 x10_4/ul
Ret [1]: 6.2%
WBC [1]: 129 x10_2/uL
KIDNEY_L [1]: 1.1 g
KIDNEY_R [1]: 1 g
KIDNEY_TOTAL [1]: 2.1 g
LIVER [1]: 11.1 g
ALP [1]: 1033.4 IU/L
ALT [1]: 42.8 IU/L
AST [1]: 70.2 IU/L
BUN [1]: 17 mg/dL
CRE [1]: 0.4 mg/dL
DBIL [1]: 0.07 mg/dL
GLC [1]: 205.4 mg/dL
IP [1]: 8.6 mg/dL
K [1]: 4.4 meq/L
LDH [1]: 128.8 IU/L
Na [1]: 141.6 meq/L
PL [1]: 148.6 mg/dL
RALB [1]: 3.4 g/dL
TBIL [1]: 0.1 mg/dL
TC [1]: 69.8 mg/dL
TP [1]: 5.5 g/dL
gamma-GTP [1]: 1.2 IU/L
TERMINAL_BW [2]: 252.6 g
TERMINAL_BW [3]: 313.6 g
TERMINAL_BW [4]: 400.8 g
APTT [2]: 20.7 s
Bas [2]: 1%
Eos [2]: 1%
Fbg [2]: 224.2 mg/dL
Hb [2]: 14 g/dL
Ht [2]: 38.4%
Lym [2]: 81.6%
MCH [2]: 21.3 pg
MCHC [2]: 36.4%
MCV [2]: 58.5 fL
Mono [2]: 2.4%
Neu [2]: 13.4%
PT [2]: 11.4 s
Plat [2]: 127 x10_4/uL
RBC [2]: 658 x10_4/ul
Ret [2]: 4.7%
WBC [2]: 103.5 x10_2/uL
APTT [3]: 20.6 s
Bas [3]: 1%
Eos [3]: 0.8%
Fbg [3]: 220.6 mg/dL
Hb [3]: 14.3 g/dL
Ht [3]: 39.5%
Lym [3]: 78.8%
MCH [3]: 21.1 pg
MCHC [3]: 36.2%
MCV [3]: 58.1 fL
Mono [3]: 2.8%
Neu [3]: 16%
PT [3]: 11.6 s
Plat [3]: 116.1 x10_4/uL
RBC [3]: 681.2 x10_4/ul
Ret [3]: 4.3%
WBC [3]: 121.8 x10_2/uL
APTT [4]: 18.1 s
Bas [4]: 0.8%
Eos [4]: 1%
Fbg [4]: 233.4 mg/dL
Hb [4]: 15.5 g/dL
Ht [4]: 41.4%
Lym [4]: 80.2%
MCH [4]: 20.9 pg
MCHC [4]: 37.5%
MCV [4]: 55.7 fL
Mono [4]: 2%
Neu [4]: 15.4%
PT [4]: 11.5 s
Plat [4]: 106.8 x10_4/uL
RBC [4]: 743.4 x10_4/ul
Ret [4]: 2.7%
WBC [4]: 97 x10_2/uL
KIDNEY_L [2]: 1.1 g
KIDNEY_R [2]: 1 g
KIDNEY_TOTAL [2]: 2.1 g
KIDNEY_L [3]: 1.2 g
KIDNEY_R [3]: 1.2 g
KIDNEY_TOTAL [3]: 2.4 g
KIDNEY_L [4]: 1.4 g
KIDNEY_R [4]: 1.3 g
KIDNEY_TOTAL [4]: 2.7 g
LIVER [2]: 11.3 g
LIVER [3]: 13.2 g
LIVER [4]: 16.3 g
ALP [2]: 1176 IU/L
ALT [2]: 44.8 IU/L
AST [2]: 81.6 IU/L
BUN [2]: 15 mg/dL
CRE [2]: 0.4 mg/dL
DBIL [2]: 0.066 mg/dL
GLC [2]: 195.4 mg/dL
IP [2]: 6.9 mg/dL
K [2]: 3.9 meq/L
LDH [2]: 144.6 IU/L
Na [2]: 141.4 meq/L
PL [2]: 153.4 mg/dL
RALB [2]: 3.4 g/dL
TBIL [2]: 0.1 mg/dL
TC [2]: 77.8 mg/dL
TG [2]: 81.6 mg/dL
TP [2]: 5.7 g/dL
gamma-GTP [2]: 1.2 IU/L
ALP [3]: 840.4 IU/L
ALT [3]: 33.6 IU/L
AST [3]: 70.2 IU/L
BUN [3]: 17.2 mg/dL
CRE [3]: 0.4 mg/dL
DBIL [3]: 0.056 mg/dL
GLC [3]: 215.8 mg/dL
IP [3]: 7.5 mg/dL
K [3]: 4.4 meq/L
LDH [3]: 155.2 IU/L
Na [3]: 142 meq/L
PL [3]: 138 mg/dL
RALB [3]: 3.4 g/dL
TBIL [3]: 0.098 mg/dL
TC [3]: 65.2 mg/dL
TG [3]: 114 mg/dL
TP [3]: 5.6 g/dL
gamma-GTP [3]: 1.2 IU/L
ALP [4]: 742.8 IU/L
ALT [4]: 29.6 IU/L
AST [4]: 58.6 IU/L
BUN [4]: 18.2 mg/dL
CRE [4]: 0.5 mg/dL
DBIL [4]: 0.068 mg/dL
GLC [4]: 214.4 mg/dL
IP [4]: 6.7 mg/dL
K [4]: 3.8 meq/L
LDH [4]: 168.2 IU/L
Na [4]: 141.6 meq/L
PL [4]: 133.2 mg/dL
RALB [4]: 3.6 g/dL
TBIL [4]: 0.1 mg/dL
TC [4]: 63 mg/dL
TG [4]: 126.8 mg/dL
TP [4]: 6.1 g/dL
gamma-GTP [4]: 0.8 IU/L
TERMINAL_BW [5]: 232 g
APTT [5]: 19.7 s
Bas [5]: 0.6%
Eos [5]: 1%
Fbg [5]: 223.6 mg/dL
Hb [5]: 13.6 g/dL
Ht [5]: 38.5%
Lym [5]: 74.2%
MCH [5]: 21.5 pg
MCHC [5]: 35.2%
MCV [5]: 61.1 fL
Mono [5]: 3%
Neu [5]: 20.2%
PT [5]: 11.6 s
Plat [5]: 129 x10_4/uL
RBC [5]: 631.6 x10_4/ul
Ret [5]: 6.2%
WBC [5]: 88 x10_2/uL
KIDNEY_L [5]: 1 g
KIDNEY_R [5]: 1 g
KIDNEY_TOTAL [5]: 2 g
LIVER [5]: 11.3 g
ALP [5]: 1106 IU/L
ALT [5]: 36.4 IU/L
AST [5]: 67.8 IU/L
BUN [5]: 14.8 mg/dL
CRE [5]: 0.4 mg/dL
DBIL [5]: 0.072 mg/dL
GLC [5]: 212 mg/dL
IP [5]: 7.5 mg/dL
K [5]: 4.1 meq/L
LDH [5]: 163.6 IU/L
Na [5]: 142 meq/L
PL [5]: 155.8 mg/dL
RALB [5]: 3.4 g/dL
TBIL [5]: 0.1 mg/dL
TC [5]: 75.4 mg/dL
TG [5]: 100.8 mg/dL
TP [5]: 5.6 g/dL
gamma-GTP [5]: 1 IU/L
TERMINAL_BW [6]: 262.3 g
TERMINAL_BW [7]: 314 g
TERMINAL_BW [8]: 386.1 g
APTT [6]: 18.1 s
Bas [6]: 0.8%
Eos [6]: 1%
Fbg [6]: 231.2 mg/dL
Hb [6]: 14.1 g/dL
Ht [6]: 39.3%
Lym [6]: 76%
MCH [6]: 21.3 pg
MCHC [6]: 35.7%
MCV [6]: 59.7 fL
Mono [6]: 3.2%
Neu [6]: 18.2%
PT [6]: 11.2 s
Plat [6]: 117.8 x10_4/uL
RBC [6]: 658.6 x10_4/ul
Ret [6]: 5.8%
WBC [6]: 104.1 x10_2/uL
APTT [7]: 21.4 s
Bas [7]: 0.8%
Eos [7]: 0.8%
Fbg [7]: 221.2 mg/dL
Hb [7]: 14.1 g/dL
Ht [7]: 39.2%
Lym [7]: 78.6%
MCH [7]: 21.2 pg
MCHC [7]: 36.1%
MCV [7]: 58.7 fL
Mono [7]: 2.6%
Neu [7]: 16.8%
PT [7]: 11.6 s
Plat [7]: 116.9 x10_4/uL
RBC [7]: 668.2 x10_4/ul
Ret [7]: 4.7%
WBC [7]: 124.8 x10_2/uL
APTT [8]: 18 s
Bas [8]: 0.6%
Eos [8]: 1.2%
Fbg [8]: 223.6 mg/dL
Hb [8]: 14.9 g/dL
Ht [8]: 40.4%
Lym [8]: 82%
MCH [8]: 19.9 pg
MCHC [8]: 37%
MCV [8]: 53.7 fL
Mono [8]: 2%
Neu [8]: 13.8%
PT [8]: 11.7 s
Plat [8]: 106 x10_4/uL
RBC [8]: 752.8 x10_4/ul
Ret [8]: 2.9%
WBC [8]: 115.9 x10_2/uL
KIDNEY_L [6]: 1.1 g
KIDNEY_R [6]: 1.1 g
KIDNEY_TOTAL [6]: 2.2 g
KIDNEY_L [7]: 1.3 g
KIDNEY_R [7]: 1.2 g
KIDNEY_TOTAL [7]: 2.5 g
KIDNEY_L [8]: 1.3 g
KIDNEY_R [8]: 1.3 g
KIDNEY_TOTAL [8]: 2.7 g
LIVER [6]: 12.2 g
LIVER [7]: 14.3 g
LIVER [8]: 15.6 g
ALP [6]: 861.2 IU/L
ALT [6]: 38.4 IU/L
AST [6]: 71.8 IU/L
BUN [6]: 15.4 mg/dL
CRE [6]: 0.4 mg/dL
DBIL [6]: 0.068 mg/dL
GLC [6]: 204.4 mg/dL
IP [6]: 7.6 mg/dL
K [6]: 3.9 meq/L
LDH [6]: 167.6 IU/L
Na [6]: 142.4 meq/L
PL [6]: 150.8 mg/dL
RALB [6]: 3.5 g/dL
TBIL [6]: 0.1 mg/dL
TC [6]: 78.4 mg/dL
TP [6]: 5.7 g/dL
gamma-GTP [6]: 1 IU/L
ALP [7]: 887.6 IU/L
ALT [7]: 36.4 IU/L
AST [7]: 68.8 IU/L
BUN [7]: 16.8 mg/dL
CRE [7]: 0.4 mg/dL
DBIL [7]: 0.058 mg/dL
GLC [7]: 225.4 mg/dL
IP [7]: 7.7 mg/dL
K [7]: 4.2 meq/L
LDH [7]: 174.2 IU/L
Na [7]: 142.2 meq/L
PL [7]: 154.8 mg/dL
RALB [7]: 3.3 g/dL
TBIL [7]: 0.1 mg/dL
TC [7]: 74.4 mg/dL
TG [7]: 120.6 mg/dL
TP [7]: 5.7 g/dL
gamma-GTP [7]: 1 IU/L
ALP [8]: 647.4 IU/L
ALT [8]: 37 IU/L
AST [8]: 64.2 IU/L
BUN [8]: 15.8 mg/dL
CRE [8]: 0.5 mg/dL
DBIL [8]: 0.07 mg/dL
GLC [8]: 200.8 mg/dL
IP [8]: 7.2 mg/dL
K [8]: 3.8 meq/L
LDH [8]: 145 IU/L
Na [8]: 142 meq/L
PL [8]: 158.4 mg/dL
RALB [8]: 3.5 g/dL
TBIL [8]: 0.1 mg/dL
TC [8]: 78.4 mg/dL
TG [8]: 133.8 mg/dL
TP [8]: 5.8 g/dL
gamma-GTP [8]: 1 IU/L
